Laboratory results reported in the supplement of paper PMC11208160.

test: recombinant barcode read abundance after kanamycin selection (control-corrected) (log10(CPM+1)); higher = more efficient recombination; sequences stand for … in AGTGCAGAGAAAATCGGCCAGTTTTCTCTGCCTGCAGTCCGCATGCCGT…AGATTTATGCAGCGGACTGCCTTTCTCCCAAAGTGATAAACCGGACAGTATCATGGACCGGTTTTCCCGGTAATCCGTATTTGCAAGGTTGGTTTCACT; site = the 11-nt target
Outline: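 For this pooled screen, each oligo contained a promoter, a target, a barcode and the J23119-driven first 104 bases of the bridge RNA. Gibson cloning placed it into a vector supplying the remaining 73 bp and a T7-inducible recombinase, and the pool was co-electroporated into E. coli with a donor plasmid. Recombination efficiency is derived from barcode counts per million at recombinant junctions after averaging and control correction, and is expressed on a log scale as log10(CPM+1), with selection on chloramphenicol/ampicillin/kanamycin plus 0.1 mM IPTG against a chloramphenicol/ampicillin LB agar control.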
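Note: IS621 recombinase and bridge RNA in Escherichia coli cells.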

| Sequence | recombinant barcode read abundance (log10) |
| --- | --- |
| GAGACTCCTTGGGTTCTAACCTGTTGCAC (site GAGACTCCTCT) | 0.437 |
| GAGACTCCTTGGGTTCTAACCTGTTGCAC (site GAGACTCCTGT) | 1.17 |
| GAGACTCCTTGGGTTCTAACCTGTTGCAG (site GAGACTCCTCT) | 0.956 |
| GAGACTCCTTGGGTTCTAACCTGTTGCAG (site GAGACTCCTGT) | 0.509 |
| GAGACTCCTTGGGTTCTAACCTGTTGCTA (site GAGACTCCTTA) | 0.392 |
| GAGACTCCTTGGGTTCTAACCTGTTGCTA (site GCGACTCCTTA) | 0.0503 |
| GAGACTGCTTGGGTTCTAACCTGTTGCCT (site GAAACTGCTAG) | 0.291 |
| GAGACTGCTTGGGTTCTAACCTGTTGCCT (site GACACTGCTAG) | 0.068 |
| GAGACTGCTTGGGTTCTAACCTGTTGCCT (site GAGACTGCTAG) | 0.865 |
| GAGACTGCTTGGGTTCTAACCTGTTGCCT (site GATACTGCTAG) | 0.0802 |
| GAGAGCACTTGGGTTCTAACCTGTTGCCA (site GAGAGCACTTG) | 1.23 |
| GAGAGCACTTGGGTTCTAACCTGTTGCCA (site GAGGGCACTTG) | 0.329 |
| GAGAGGACTTGGGTTCTAACCTGTTGCTT (site GAGAGGACTAA) | 1.86 |
| GAGAGGACTTGGGTTCTAACCTGTTGCTT (site GATAGAACTAA) | 0.0753 |
| GAGATATCTTGGGTTCTAACCTGTTGCCT (site GAGAAATCTAG) | 0.223 |
| GAGATATCTTGGGTTCTAACCTGTTGCCT (site GAGACATCTAG) | 0.339 |
| GAGATATCTTGGGTTCTAACCTGTTGCCT (site GAGAGATCTAG) | 0.217 |
| GAGATATCTTGGGTTCTAACCTGTTGCCT (site GAGATATCTAG) | 2.07 |
| GAGATCCCTTGGGTTCTAACCTGTTGCCA (site GAGATCCCTTG) | 1.22 |
| GAGATCCCTTGGGTTCTAACCTGTTGCCA (site GGGGTCCCTTG) | 0.235 |
| GAGATCCCTTGGGTTCTAACCTGTTGCTA (site GAGATCCCTCA) | 0.427 |
| GAGATCCCTTGGGTTCTAACCTGTTGCTA (site GAGATCCCTTA) | 1.93 |

| Sequence | recombinant barcode read abundance (log10) |
| --- | --- |
| GAGATCCCTTGGGTTCTAACCTGTTGCTG (site GAGATCCCTCA) | 2.37 |
| GAGATCCCTTGGGTTCTAACCTGTTGCTG (site GAGATCCCTTA) | 0.188 |
| GAGATGACTTGGGTTCTAACCTGTTGCGG (site GAGACGACTCG) | 0.0565 |
| GAGATGACTTGGGTTCTAACCTGTTGCGG (site GAGATGACTCC) | 2.29 |
| GAGCAACCTTGGGTTCTAACCTGTTGCCG (site GAGCAACCTCG) | 1.07 |
| GAGCAACCTTGGGTTCTAACCTGTTGCCG (site GAGCCACCTTG) | 0.017 |
| GAGCAGACTTGGGTTCTAACCTGTTGCCT (site GAGCAGACTAG) | 0.931 |
| GAGCAGACTTGGGTTCTAACCTGTTGCCT (site GAGCCGACTAG) | 0.146 |
| GAGCAGACTTGGGTTCTAACCTGTTGCCT (site GAGCGGACTAG) | 0.235 |
| GAGCAGACTTGGGTTCTAACCTGTTGCCT (site GAGCTGACTAG) | 0.631 |
| GAGCCACCTTGGGTTCTAACCTGTTGCCA (site GAGCAACCTCG) | 0.0457 |
| GAGCCACCTTGGGTTCTAACCTGTTGCCA (site GAGCCACCTTG) | 1.02 |
| GAGCGAGCTTGGGTTCTAACCTGTTGCCG (site GAGCGAGCTCA) | 0.199 |
| GAGCGAGCTTGGGTTCTAACCTGTTGCCG (site GAGCGAGCTCC) | 0.582 |
| GAGCGAGCTTGGGTTCTAACCTGTTGCCG (site GAGCGAGCTCG) | 1.11 |
| GAGCGAGCTTGGGTTCTAACCTGTTGCCG (site GAGCGAGCTCT) | 0.308 |
| GAGCGATCTTGGGTTCTAACCTGTTGCGT (site GAGCGATCTAC) | 1.85 |
| GAGCGATCTTGGGTTCTAACCTGTTGCGT (site GAGTGAGCTAC) | 0.0311 |
| GAGCGCTCTTGGGTTCTAACCTGTTGCCT (site GAGCGCTCTAG) | 1.48 |
| GAGCGCTCTTGGGTTCTAACCTGTTGCCT (site GAGTGCTCTAC) | 0.0357 |
| GAGCGCTCTTGGGTTCTAACCTGTTGCTG (site GAGCGCTCTAA) | 0.0574 |
| GAGCGCTCTTGGGTTCTAACCTGTTGCTG (site GAGCGCTCTCA) | 1.05 |

| Sequence | recombinant barcode read abundance (log10) |
| --- | --- |
| GAGCGCTCTTGGGTTCTAACCTGTTGCTG (site GAGCGCTCTGA) | 0.207 |
| GAGCGCTCTTGGGTTCTAACCTGTTGCTG (site GAGCGCTCTTA) | 0.0132 |
| GAGCGGACTTGGGTTCTAACCTGTTGCTA (site GAGCGAGCTTA) | 0.0384 |
| GAGCGGACTTGGGTTCTAACCTGTTGCTA (site GAGCGGACTTA) | 1.83 |
| GAGCGGCCTTGGGTTCTAACCTGTTGCAG (site ATTTAAGCTAG) | 0.224 |
| GAGCGGCCTTGGGTTCTAACCTGTTGCAG (site GAGCGGCCTCT) | 1.72 |
| GAGCTAGCTTGGGTTCTAACCTGTTGCGC (site GAGCTAGCTAC) | 0.109 |
| GAGCTAGCTTGGGTTCTAACCTGTTGCGC (site GAGCTAGCTGC) | 2.29 |
| GAGCTGCCTTGGGTTCTAACCTGTTGCCA (site AGCTAATCTAA) | 0.274 |
| GAGCTGCCTTGGGTTCTAACCTGTTGCCA (site GAGCTGCCTTG) | 1.66 |
| GAGCTTACTTGGGTTCTAACCTGTTGCCT (site GAGCTTACTAG) | 0.618 |
| GAGCTTACTTGGGTTCTAACCTGTTGCCT (site GCGCTTACTAG) | 0.0105 |
| GAGCTTACTTGGGTTCTAACCTGTTGCCT (site GGGCTTACTAG) | 0.299 |
| GAGCTTACTTGGGTTCTAACCTGTTGCCT (site GTGCTTACTAG) | 0.158 |
| GAGGAACCTTGGGTTCTAACCTGTTGCCT (site AAGGAACCTAG) | 1.57 |
| GAGGAACCTTGGGTTCTAACCTGTTGCCT (site CAGGAACCTAG) | 1.28 |
| GAGGAACCTTGGGTTCTAACCTGTTGCCT (site GAGGAACCTAG) | 2.12 |
| GAGGAACCTTGGGTTCTAACCTGTTGCCT (site TAGGAACCTAG) | 1.44 |
| GAGGAAGCTTGGGTTCTAACCTGTTGCCT (site GAGGAAGCTAG) | 1.81 |
| GAGGAAGCTTGGGTTCTAACCTGTTGCCT (site GCGGAAGCTAG) | 0.545 |
| GAGGAAGCTTGGGTTCTAACCTGTTGCCT (site GGGGAAGCTAG) | 0.316 |
| GAGGAAGCTTGGGTTCTAACCTGTTGCCT (site GTGGAAGCTAG) | 0.473 |

| Sequence | recombinant barcode read abundance (log10) |
| --- | --- |
| GAGGACTCTTGGGTTCTAACCTGTTGCCC (site GAGGACTCTAG) | 2 |
| GAGGACTCTTGGGTTCTAACCTGTTGCCC (site GAGGACTCTCG) | 0.136 |
| GAGGACTCTTGGGTTCTAACCTGTTGCCC (site GAGGACTCTGG) | 2.39 |
| GAGGACTCTTGGGTTCTAACCTGTTGCCC (site GAGGACTCTTG) | 0.682 |
| GAGGAGTCTTGGGTTCTAACCTGTTGCCG (site AGAACACCTAA) | 0.0129 |
| GAGGAGTCTTGGGTTCTAACCTGTTGCCG (site GAGGAGTCTCG) | 1.3 |
| GAGGAGTCTTGGGTTCTAACCTGTTGCCT (site GAGAAGTCTAG) | 1.02 |
| GAGGAGTCTTGGGTTCTAACCTGTTGCCT (site GAGCAGTCTAG) | 0.0568 |
| GAGGAGTCTTGGGTTCTAACCTGTTGCCT (site GAGGAGTCTAG) | 2.55 |
| GAGGAGTCTTGGGTTCTAACCTGTTGCCT (site GAGTAGTCTAG) | 0.171 |
| GAGGATCCTTGGGTTCTAACCTGTTGCCT (site GAGGATCCTAG) | 2.12 |
| GAGGATCCTTGGGTTCTAACCTGTTGCCT (site GGGGATCCTAG) | 0.457 |
| GAGGCAACTTGGGTTCTAACCTGTTGCTT (site CACGCAACTAA) | 0 |
| GAGGCAACTTGGGTTCTAACCTGTTGCTT (site GAGGCAACTAA) | 0.0561 |
| GAGGCTCCTTGGGTTCTAACCTGTTGCCG (site GAGGCTCCTAG) | 0.113 |
| GAGGCTCCTTGGGTTCTAACCTGTTGCCG (site GAGGCTCCTCG) | 0.993 |
| GAGGCTCCTTGGGTTCTAACCTGTTGCCG (site GAGGCTCCTGG) | 0.138 |
| GAGGCTCCTTGGGTTCTAACCTGTTGCCG (site GAGGCTCCTTG) | 0.238 |
| GAGGGTACTTGGGTTCTAACCTGTTGCCT (site GAGCATACTAG) | 0.295 |
| GAGGGTACTTGGGTTCTAACCTGTTGCCT (site GAGGGTACTAG) | 1.76 |
